# Experimental data: BindingDB's records for doi:10.1021/acsmedchemlett.9b00615 (University of Manchester, 2020)
# Key:
# [1] = Inhibition of RET (unknown origin) expressed in […] cells assessed as reduction in cell viability incubated for 48 hrs by celltiter glo luminescence cell viability assay
# [2] = Inhibition of KDR (unknown origin) expressed in […] cells assessed as reduction in cell viability incubated for 48 hrs by celltiter glo luminescence cell viability assay
structure (smiles),measurement,setting,value
CN(C)CCCNc1ccn2ncc(-c3ccc4c(c3)OCO4)c2n1,IC50,[1],4 µM
same,IC50,[2],9 µM
